Results from US20020137929A1, “1 - (3-heterocyclylphenyl) isothiourea, -isourea, -guanidine and -amidine herbicidal agents” (Intellectual Property Department, BASF Aktiengesellschaft, priority 1998, published 2002).

Experiments:
SETVI (Foxtail, Green) = assay: Postemergence herbicidal evaluation; assay type: in vivo, Setaria viridis; conditions: postemergence
How it was run: (§1)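 Rate range approx. 0.0156–0.500 kg/ha. Foliar application at 40 psi to ~2-week seedlings; surfactant 0.5% TWEEN 20 in 50/50 acetone/water. Evaluation 4–5 wk post-treatment by 0–9 visual injury score, means of replicate tests.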

ECHCG (Barnyardgrass) [1] = assay: Postemergence herbicidal evaluation; assay type: in vivo, Echinochloa crus-galli; conditions: postemergence
How it was run: as §1

ABUTH (Velvetleaf) [2] = assay: Preemergence herbicidal evaluation; assay type: in vivo, Abutilon theophrasti; conditions: rated 4-5 weeks after treatment
How it was run: (§2)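 Sown cups got a single aqueous acetone spray of test compound (roughly 0.0156–0.500 kg/ha) before seedlings emerged. Evaluation, 4–5 weeks on, used a 0–9 visual scale covering plant stand, vigor, size, malformation, chlorosis and general appearance compared with controls.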

ABUTH (Velvetleaf) [3] = assay: Postemergence herbicidal evaluation; assay type: in vivo, Abutilon theophrasti; conditions: postemergence
How it was run: as §1

ORYSAT (Rice, Tebonnet) = assay: Postemergence herbicidal evaluation; assay type: in vivo, Oryza sativa, (L.) Tebonnet; conditions: postemergence
How it was run: as §1

[4] = tested on: TRZAWR (Wheat, Winter, cv Riband); assay: Preemergence herbicidal evaluation; assay type: in vivo, Triticum aestivum; conditions: rated 4-5 weeks after treatment
How it was run: as §2

ECHCG (Barnyardgrass) [5] = assay: Preemergence herbicidal evaluation; assay type: in vivo, Echinochloa crus-galli; conditions: rated 4-5 weeks after treatment
How it was run: as §2

[6] = tested on: GLXMAW (Soybean, Williams); assay: Preemergence herbicidal evaluation; assay type: in vivo, Glycine max, (L.) Merr. cv Williams; conditions: rated 4-5 weeks after treatment
How it was run: as §2

[7] = tested on: IPOHE (Morningglory, Ivyleaf); assay: Preemergence herbicidal evaluation; assay type: in vivo, Ipomoea hederacea; conditions: rated 4-5 weeks after treatment
How it was run: as §2

ZEAMX (Corn, Field) [8] = assay: Preemergence herbicidal evaluation; assay type: in vivo, Zea mays; conditions: rated 4-5 weeks after treatment
How it was run: as §2

ZEAMX (Corn, Field) [9] = assay: Postemergence herbicidal evaluation; assay type: in vivo, Zea mays; conditions: postemergence
How it was run: as §1

CASOB (Sicklepod) = assay: Preemergence herbicidal evaluation; assay type: in vivo, Cassia obtusifolia; conditions: rated 4-5 weeks after treatment
How it was run: as §2

[10] = tested on: CHEAL (Lambsquarters, Common); assay: Preemergence herbicidal evaluation; assay type: in vivo, Chenopodium album; conditions: rated 4-5 weeks after treatment
How it was run: as §2

[11] = tested on: CHEAL (Lambsquarters, Common); assay: Postemergence herbicidal evaluation; assay type: in vivo, Chenopodium album; conditions: postemergence
How it was run: as §1

[12] = tested on: IPOHE (Morningglory, Ivyleaf); assay: Postemergence herbicidal evaluation; assay type: in vivo, Ipomoea hederacea; conditions: postemergence
How it was run: as §1

## Cn1c(C(F)(F)F)cc(=O)n(-c2cc(N=C3SCC(=O)N3CC(F)(F)F)c(Cl)cc2F)c1=O [Compound 163, 3-{4-Chloro-2-fluoro-5-{[4-oxo-3-(2,2,2-trifluoroethyl)-2-thiazolidinylidene]amino}phenyl}-1-methyl-6-(trifluoromethyl)-2,4(1H,3H)-pyrimidinedione]
SETVI (Foxtail, Green); rate 0.0156 kg/ha
  herbicidal rating SETVI: 0.0
SETVI (Foxtail, Green); rate 0.0625 kg/ha
  herbicidal rating SETVI: 3.0
ECHCG (Barnyardgrass) [1]; rate 0.0156 kg/ha
  herbicidal rating ECHCG: 0.0
ECHCG (Barnyardgrass) [1]; rate 0.0313 kg/ha
  herbicidal rating ECHCG: 0.0
ECHCG (Barnyardgrass) [1]; rate 0.0625 kg/ha
  herbicidal rating ECHCG: 1.0
ABUTH (Velvetleaf) [2]; 0.0156 kg/ha
  Preemergence herbicidal rating ABUTH: 9.0
ABUTH (Velvetleaf) [2]; 0.0313 kg/ha
  Preemergence herbicidal rating ABUTH: 9.0
ABUTH (Velvetleaf) [2]; 0.0625 kg/ha
  Preemergence herbicidal rating ABUTH: 9.0
ABUTH (Velvetleaf) [2]; 0.1250 kg/ha
  Preemergence herbicidal rating ABUTH: 9.0
ABUTH (Velvetleaf) [2]; 0.2500 kg/ha
  Preemergence herbicidal rating ABUTH: 9.0
ABUTH (Velvetleaf) [3]; rate 0.0156 kg/ha
  herbicidal rating ABUTH: 9.0
ABUTH (Velvetleaf) [3]; rate 0.0313 kg/ha
  herbicidal rating ABUTH: 9.0
ABUTH (Velvetleaf) [3]; rate 0.0625 kg/ha
  herbicidal rating ABUTH: 9.0
ORYSAT (Rice, Tebonnet); rate 0.0156 kg/ha
  herbicidal rating ORYSAT: 1.0
ORYSAT (Rice, Tebonnet); rate 0.0313 kg/ha
  herbicidal rating ORYSAT: 1.5
ORYSAT (Rice, Tebonnet); rate 0.0625 kg/ha
  herbicidal rating ORYSAT: 2.0
[4]; 0.0156 kg/ha
  Preemergence herbicidal rating TRZAWR: 0.0
[4]; 0.0313 kg/ha
  Preemergence herbicidal rating TRZAWR: 0.0
[4]; 0.0625 kg/ha
  Preemergence herbicidal rating TRZAWR: 3.0
[4]; 0.1250 kg/ha
  Preemergence herbicidal rating TRZAWR: 7.0
[4]; 0.2500 kg/ha
  Preemergence herbicidal rating TRZAWR: 7.0
ECHCG (Barnyardgrass) [5]; 0.0156 kg/ha
  Preemergence herbicidal rating ECHCG: 2.0
ECHCG (Barnyardgrass) [5]; 0.0313 kg/ha
  Preemergence herbicidal rating ECHCG: 4.0
ECHCG (Barnyardgrass) [5]; 0.0625 kg/ha
  Preemergence herbicidal rating ECHCG: 7.0
ECHCG (Barnyardgrass) [5]; 0.1250 kg/ha
  Preemergence herbicidal rating ECHCG: 8.0
ECHCG (Barnyardgrass) [5]; 0.2500 kg/ha
  Preemergence herbicidal rating ECHCG: 9.0
[6]; 0.0156 kg/ha
  Preemergence herbicidal rating GLXMAW: 0.0
[6]; 0.0313 kg/ha
  Preemergence herbicidal rating GLXMAW: 2.0
[6]; 0.0625 kg/ha
  Preemergence herbicidal rating GLXMAW: 3.0
[6]; 0.1250 kg/ha
  Preemergence herbicidal rating GLXMAW: 3.0
[6]; 0.2500 kg/ha
  Preemergence herbicidal rating GLXMAW: 5.0
[7]; 0.0156 kg/ha
  Preemergence herbicidal rating IPOHE: 0.0
[7]; 0.0313 kg/ha
  Preemergence herbicidal rating IPOHE: 0.0
[7]; 0.0625 kg/ha
  Preemergence herbicidal rating IPOHE: 3.0
[7]; 0.1250 kg/ha
  Preemergence herbicidal rating IPOHE: 9.0
[7]; 0.2500 kg/ha
  Preemergence herbicidal rating IPOHE: 9.0
ZEAMX (Corn, Field) [8]; 0.0156 kg/ha
  Preemergence herbicidal rating ZEAMX: 5.0
ZEAMX (Corn, Field) [8]; 0.0313 kg/ha
  Preemergence herbicidal rating ZEAMX: 5.0
ZEAMX (Corn, Field) [8]; 0.0625 kg/ha
  Preemergence herbicidal rating ZEAMX: 7.0
ZEAMX (Corn, Field) [8]; 0.1250 kg/ha
  Preemergence herbicidal rating ZEAMX: 7.0
ZEAMX (Corn, Field) [8]; 0.2500 kg/ha
  Preemergence herbicidal rating ZEAMX: 8.0
ZEAMX (Corn, Field) [9]; rate 0.0156 kg/ha
  herbicidal rating ZEAMX: 5.0
ZEAMX (Corn, Field) [9]; rate 0.0313 kg/ha
  herbicidal rating ZEAMX: 5.5
ZEAMX (Corn, Field) [9]; rate 0.0625 kg/ha
  herbicidal rating ZEAMX: 5.5
CASOB (Sicklepod); 0.0156 kg/ha
  Preemergence herbicidal rating CASOB: 0.0
CASOB (Sicklepod); 0.0313 kg/ha
  Preemergence herbicidal rating CASOB: 0.0
CASOB (Sicklepod); 0.0625 kg/ha
  Preemergence herbicidal rating CASOB: 0.0
CASOB (Sicklepod); 0.1250 kg/ha
  Preemergence herbicidal rating CASOB: 0.0
CASOB (Sicklepod); 0.2500 kg/ha
  Preemergence herbicidal rating CASOB: 5.0
[10]; 0.0156 kg/ha
  Preemergence herbicidal rating CHEAL: 9.0
[10]; 0.0313 kg/ha
  Preemergence herbicidal rating CHEAL: 9.0
[10]; 0.0625 kg/ha
  Preemergence herbicidal rating CHEAL: 9.0
[10]; 0.1250 kg/ha
  Preemergence herbicidal rating CHEAL: 9.0
[10]; 0.2500 kg/ha
  Preemergence herbicidal rating CHEAL: 9.0
[11]; rate 0.0156 kg/ha
  herbicidal rating CHEAL: 9.0
[11]; rate 0.0313 kg/ha
  herbicidal rating CHEAL: 9.0
[11]; rate 0.0625 kg/ha
  herbicidal rating CHEAL: 9.0
[12]; rate 0.0156 kg/ha
  herbicidal rating IPOHE: 9.0
[12]; rate 0.0313 kg/ha
  herbicidal rating IPOHE: 9.0
[12]; rate 0.0625 kg/ha
  herbicidal rating IPOHE: 9.0
